Literature values, collected in patent US20250340636A1, “ANTIBODIES TARGETING L1CAM AND USES THEREOF” (MEMORIAL SLOAN-KETTERING CANCER CENTER, priority 2023, published 2025).

Conditions: free drug, mice (Quintieri et al. 2005); cited from earlier work

## COc1cccc2c1C(=O)c1c(O)c3c(c(O)c1C2=O)C[C@@](O)(C(=O)CO)C[C@@H]3O[C@H]1C[C@H]2[C@H](O[C@@H]3[C@@H](OC)OCCN32)[C@H](C)O1 [PNU-159682]
  maximum tolerated dose: 0.015 mg/kg
